This test deals with T1, human S1P1 receptor (Homo sapiens, UniProt P21453).
T1 construct: expressed in transfected cells; membranes used
As to the kind of experiment: GTP γ35S binding assay for S1P1 activity. The class given is biochemical. The conditions noted are these: membranes of cells stably expressing the S1P1 receptor, agonist potency. How it is done: Compounds of the invention were tested for S1P1 activity using the GTP γ^35S binding assay. These compounds may be assessed for their ability to activate or block activation of the human S1P1 receptor in cells stably expressing the S1P1 receptor.
GTP γ^35S binding was measured in the medium containing (mM) HEPES 25, pH 7.4, MgCl2 10, NaCl 100, dithitothreitol 0.5, digitonin 0.003%, 0.2 nM GTP γ^35S, and 5 μg membrane protein in a volume of 150 μl. Test compounds were included in the concentration range from 0.08 to 5,000 nM unless indicated otherwise. Membranes were incubated with 100 μM 5′-adenylylimmidodiphosphate for 30 min, and subsequently with 10 μM GDP for 10 min on ice.
Drug solutions and membrane were mixed, and then reactions were initiated by adding GTP γ^35S and continued for 30 min at 25° C. Reaction mixtures were filtered over Whatman GF/B filters under vacuum, and washed three times with 3 mL of ice-cold buffer (HEPES 25, pH7.4, MgCl2 10 and NaCl 100). Filters were dried and mixed with scintillant, and counted for ^35S activity using a β-counter. Agonist-induced GTP γ^35S binding was obtained by subtracting that in the absence of agonist. Binding data were analyzed using a non-linear regression method. In case of antagonist assay, the reaction mixture contained 10 nM S1P in the presence of test antagonist at concentrations ranging from 0.08 to 5000 nM.
On the technique in general: GTPγS is a poorly hydrolysed GTP analogue; its binding reports G protein activation.

T1 sequence (P21453 whole entry): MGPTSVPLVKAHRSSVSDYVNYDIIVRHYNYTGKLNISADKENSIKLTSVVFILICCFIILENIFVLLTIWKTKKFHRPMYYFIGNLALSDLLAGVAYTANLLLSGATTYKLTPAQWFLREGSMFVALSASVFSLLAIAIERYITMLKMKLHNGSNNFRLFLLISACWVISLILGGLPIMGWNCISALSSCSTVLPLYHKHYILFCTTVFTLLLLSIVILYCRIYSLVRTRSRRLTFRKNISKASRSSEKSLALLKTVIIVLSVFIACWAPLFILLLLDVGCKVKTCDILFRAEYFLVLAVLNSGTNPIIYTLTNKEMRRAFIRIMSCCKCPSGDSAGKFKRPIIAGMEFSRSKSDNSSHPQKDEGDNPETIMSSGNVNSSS

`Cn1nc(-c2nc(-c3ccc(CNCCC(=O)O)cc3)no2)cc1-c1ccccc1` [Compound 2, 3-({4-[5-(1-methyl-5-phenyl-1H-pyrazol-3-yl)-1,2,4-oxadiazol-3-yl]benzyl}amino)propanoic acid] had an EC50 of 658 nM.
The same measure for `Cn1nc(-c2nc(-c3ccc(CNCCCP(=O)(O)O)cc3)no2)cc1-c1ccccc1` [Compound 1, [3-({4-[5-(1-Methyl-5-phenyl-1H-pyrazol-3-yl)-1,2,4-oxadiazol-3-yl]benzyl}amino)propyl]phosphonic acid]: 32 nM.

In general, EC50 refers to the concentration at which the effect is half-maximal. Low readings indicate greater potency, high ones weaker potency.

The values are drawn from patent publication US20140235588A1, “SUBSTITUTED 1H-PYRAZOL-1,2,4-OXADIAZOLE DERIVATIVES AS SPHINGOSINE RECEPTOR MODULATORS” (Allergan, Inc., priority 2013, published 2014).
